Experimental data taken from paper PMC7660103, “Discovery of Novel 3-Cyanopyridines as Survivin Modulators and Apoptosis Inducers” (Molecules, 2020).

How the values were obtained:
normal cell line WI-38 = assay: SRB cytotoxicity assay, normal cell line WI-38; format: cell-based; settings: Homo sapiens, WI-38, mean ± SD of three experiments
Description: The cytotoxicity of the newly synthesized compounds on the normal cell line WI-38 was also evaluated in order to examine the safety of these compounds.
Cell viability was estimated using the SRB assay. Aliquots of 100 µL cell suspension (5 × 10^3 cells) in 96-well plates were incubated in complete media for 24 h. Cells were treated with a second aliquot of 100 µL media containing various concentrations of the tested compounds (0.01, 0.1, 1, 10, and 100 μM). After 72 h, cells were fixed by replacing media with 15 µL of 10% TCA and then incubated at 4 °C for 1 h. After that, TCA solution was removed, and the cells were washed 5 times with distilled water. Aliquots of 70 µL SRB solution (0.4% w/v) were added and incubated in a dark place at room temperature for 10 min. Plates were washed 3 times with 1% acetic acid and allowed to air dry overnight. Then, 150 µL of TRIS (10 mM) was added to dissolve protein-bound SRB stain. The absorbance was measured at 540 nm using BMG LABTECH®-FLUO star Omega microplate reader (Ortenberg, Germany).

XIAP = assay: Western blotting of XIAP in MDA-MB-231 cells; format: cell-based, human; settings: for XIAP protein level (Western blot, in words): MDA-MB-231, 1, 5 and 10 µM
Description: The ability of the 2-oxo-3-cyano pyridines 5c and 5e to cause an inhibition of survivin was evaluated by the use of Western blotting analysis in MDA-MB-231cells treated with different concentrations of both compounds (1, 5, and 10 µM). […] Furthermore, to test the effect of these compounds on some other IAP family proteins, the Western plot of Livin, XIAP, and C-IAP1 proteins was performed (Figure 6). […] The Supplementary Material Figures S40 and S41 contain western blotting analysis for 5c and 5e.
MDA-MB-231 cancer cells were incubated with 5c and 5e at different concentrations (1, 5, and 10 µM) for 48 h. Afterwards, the medium was detached, and the cells were washed using PBS (10 mmol/L, pH 7.4). Then, the cells were incubated on cold lysis buffer (50 mmol/L Tris–HCl, 150 mmol/L NaCl, 1 mmol/L EGTA, 1 mmol/L EDTA, 20 mmol/L NaF, […], 0.5% NP40, 1% Triton X-100, 1 mmol/L PMSF (pH 7.4)) and a freshly added cocktail inhibitor (Inhibitor Cocktail Set III, Calbiochem, La Jolla, CA) above ice for 30 min. Then, MDA-MB-231 cells were collected and centrifuged at 12,000× g for 15 min.
XIAp, Survivin, Livin, and cIAP1anti-mouse, anti-rabbit secondary antibodies, and GAPDH were purchased from Sigma-Aldrich, whereas the gel was obtained from BioRad. Polyacrylamide gels were moved to a nitrocellulose membrane in order to block in buffer (7% nonfat dry milk/1% Tween 20; in 20 mmol/L TBS (pH 7.6)) for 1 h and incubated for 2 h at room temperature with the suitable primary antibody in blocking buffer or overnight at 4 °C; then, they were incubated with secondary antibody HRP conjugate. Finally, the blots analysis was done using the imaging system.

survivin = biological target: T1, survivin (Homo sapiens, UniProt O15392); assay: Rescue experiment with proteasome inhibitor MG132 (Western blot of survivin); format: cell-based; settings: MDA-MB cells pre-treated with proteasome inhibitor MG132
T1 construct: Western blotting analysis in MDA-MB-231cells treated with different concentrations of both compounds; endogenous in cells; host or cells: MDA-MB-231
T1 sequence (O15392 whole entry): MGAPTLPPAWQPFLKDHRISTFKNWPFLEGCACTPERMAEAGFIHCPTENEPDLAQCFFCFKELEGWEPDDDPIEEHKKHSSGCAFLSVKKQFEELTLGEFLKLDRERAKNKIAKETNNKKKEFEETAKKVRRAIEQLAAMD
Description: Degradation of the dimeric proteins can result from the interaction with the hydrophobic dimerization interface, which leads to conformational changes. This degradation can be mediated by the proteasome enzyme. Since 5c and 5e were expected to inhibit survivin dimerization as shown in the docking study, we assumed that they may induce the degradation of survivin via the proteasome. Thus, a rescue experiment was performed by pre-treating MDA-MB-cells with the proteasome inhibitor MG132 prior to 5c/5e treatment. […] Thus, 5c and 5e likely promote survivin degradation through the proteasome.

MDA-MB-231 cells [1] = assay: Cell cycle analysis by flow cytometry; format: cell-based, human; settings: MDA-MB-231, IC50 concentration, 24 h; for %Pre-G1: control 1.87; for %G2-M: control 4.38; for %S: control 35.21; for %G0-G1: control 60.41
From the text: Survivin has been recognized to play dual roles in stimulating cell-cycle progression and in obstructing apoptosis. Additionally, survivin is known to be expressed mainly in the G2/M phase of the cell cycle. Therefore, it was significant to examine the ability of our promising compounds 5c and 5e to induce cell cycle arrest. […] As shown in Figure 2 and Table 3, both 5c and 5e caused an increase in the number of cells in the G2/M phase by 4.92 and 5.74 folds, respectively, compared to the control cells. At the same time, a decrease in the DNA content in the G0/G1 phase, and a slight decrease in the S phase cells were observed. […] Supplementary Material Figures S37–S39 contain the cell cycle analysis for control and compounds 5c and 5e.
After that, cells were collected by trypsin and washed in saline buffered with phosphate. Then, they were fixed using ice-cold alcohol. Afterwards, cells were stained by a Cycle TESTTM PLUS DNA Reagent Kit (BD Biosciences, San Jose, CA, USA) according to the manufacturer’s directions. The distribution of the cells in the cell cycle was calculated using a FACS Calibur flow cytometer (BD Biosciences, San Jose, CA, USA).

MDA-MB-231 cells [2] = assay: Annexin V-FITC/PI apoptosis assay; format: cell-based, human; settings: for total increase in apoptotic and necrotic cells compared to control: MDA-MB-231, Annexin V-FITC; for Percent of cell death: Apoptosis Late / Percent of cell death: Necrosis / Percent of cell death: Apoptosis Early / Percent of cell death: Total: MDA-MB-231, IC50 concentration, 48 h; for Percent of cell death: Apoptosis Late: control 0.31; for Percent of cell death: Necrosis: control 0.47; for Percent of cell death: Apoptosis Early: control 1.09; for Percent of cell death: Total: control 1.87
Description: So, inhibiting survivin should result in increased spontaneous apoptosis in tumor cells. In this study, the apoptotic potential of 5c and 5e was further assessed using Annexin V-FITC assay.
MDA-MB-231 cells were plated in 24-well tissue culture plates. […] After 48 h, cells that floated were collected from the medium. The adherent cells were separated using 0.05% trypsin. After that, a 10% FBS medium was added for inactivating trypsin. Following slow pipetting, the centrifugation of cells was done for 5 min at 1500× g. Then, the supernatant was discarded, and cells were then stained with double annexin V-fluorescein isothiocyanate in addition to propidium iodide (PI) staining following the manufacturer’s directions. Analysis of the cells was investigated using a FACScan flow cytometer.

Row | Compound | IC50 (normal cell line WI-38) | XIAP band % (XIAP; MDA-MB-231, 1µM) | XIAP band Area (XIAP; MDA-MB-231, 1µM) | XIAP band Height (XIAP; MDA-MB-231, 1µM) | XIAP band Width (XIAP; MDA-MB-231, 1µM) | XIAP band % (XIAP; MDA-MB-231, 5µM) | XIAP band Area (XIAP; MDA-MB-231, 5µM) | XIAP band Height (XIAP; MDA-MB-231, 5µM) | XIAP band Width (XIAP; MDA-MB-231, 5µM) | XIAP band % (XIAP; MDA-MB-231, 10µM) | XIAP band Area (XIAP; MDA-MB-231, 10µM) | XIAP band Height (XIAP; MDA-MB-231, 10µM) | XIAP band Width (XIAP; MDA-MB-231, 10µM) | XIAP protein level (Western blot, in words) (XIAP) | effect of MG132 pre-treatment on compound-induced survivin loss (survivin) | increase in the number of cells in the G2/M phase compared to control (MDA-MB-231 cells [1]) | %Pre-G1 (MDA-MB-231 cells [1]) | %G2-M (MDA-MB-231 cells [1]) | %S (MDA-MB-231 cells [1]) | %G0-G1 (MDA-MB-231 cells [1]) | also measured
1 | COc1ccc(-c2cc(-c3ccc(OCc4ccc(F)cc4)cc3)[nH]c(=O)c2C#N)cc1 [Compound 5e, 6-(4-((4-Fluorobenzyl)oxy)phenyl)-4-(4-methoxyphenyl)-2-oxo-1,2-dihydropyridine-3-carbonitrile] | 102.6 ± 0.81 µM | 15.4% | 841 | 80 | 22 | 8.6% | 287 | 41 | 17 | 4.7% | 260 | 28 | 13 | decreased the levels of these proteins | MG132 reversed 5c/5e-induced survivin loss | 5.74 fold | 19.47% | 25.16% | 32.48% | 42.36% | total increase in apoptotic and necrotic cells compared to control (MDA-MB-231 cells [2]): 10.41 fold; Percent of cell death: Apoptosis Late (MDA-MB-231 cells [2]): 10.91%; Percent of cell death: Necrosis (MDA-MB-231 cells [2]): 2.38%; Percent of cell death: Apoptosis Early (MDA-MB-231 cells [2]): 6.18%; Percent of cell death: Total (MDA-MB-231 cells [2]): 19.47%
2 | N#Cc1c(-c2ccc(Cl)cc2)cc(-c2ccc(OCc3ccc(F)cc3)cc2)[nH]c1=O [Compound 5c, 4-(4-Chlorophenyl)-6-(4-((4-fluorobenzyl)oxy)phenyl)-2-oxo-1,2-dihydropyridine-3-carbonitrile] | 91.29 ± 0.47 µM | 16.3% | 970 | 99 | 22 | 15.1% | 921 | 88 | 19 | 14.2% | 853 | 82 | 19 | decreased the levels of these proteins | MG132 reversed 5c/5e-induced survivin loss | 4.92 fold | 16.32% | 21.57% | 33.16% | 45.27% | total increase in apoptotic and necrotic cells compared to control (MDA-MB-231 cells [2]): 8.72 fold; Percent of cell death: Apoptosis Late (MDA-MB-231 cells [2]): 8.67%; Percent of cell death: Necrosis (MDA-MB-231 cells [2]): 2.58%; Percent of cell death: Apoptosis Early (MDA-MB-231 cells [2]): 5.07%; Percent of cell death: Total (MDA-MB-231 cells [2]): 16.32%
